Experimental data taken from paper PMC10023787, “Trio-pharmacophore DNA-encoded chemical library for simultaneous selection of fragments and linkers” (Nature Communications, 2023).

What was measured:
Format in all cases: binding
MMP-2 = biological target: T1, MMP-2 (Homo sapiens, UniProt P08253); assay: De novo T-DEL selection against MMP-2, NGS decoding; settings: for Enrichment Fold / Count: MMP2 selection; for Count: NGS sequence count per Compound ID (Figure 4a)
T1 construct: purchased Sino Biological 10082-HNAH
T1 sequence (P08253 110-660): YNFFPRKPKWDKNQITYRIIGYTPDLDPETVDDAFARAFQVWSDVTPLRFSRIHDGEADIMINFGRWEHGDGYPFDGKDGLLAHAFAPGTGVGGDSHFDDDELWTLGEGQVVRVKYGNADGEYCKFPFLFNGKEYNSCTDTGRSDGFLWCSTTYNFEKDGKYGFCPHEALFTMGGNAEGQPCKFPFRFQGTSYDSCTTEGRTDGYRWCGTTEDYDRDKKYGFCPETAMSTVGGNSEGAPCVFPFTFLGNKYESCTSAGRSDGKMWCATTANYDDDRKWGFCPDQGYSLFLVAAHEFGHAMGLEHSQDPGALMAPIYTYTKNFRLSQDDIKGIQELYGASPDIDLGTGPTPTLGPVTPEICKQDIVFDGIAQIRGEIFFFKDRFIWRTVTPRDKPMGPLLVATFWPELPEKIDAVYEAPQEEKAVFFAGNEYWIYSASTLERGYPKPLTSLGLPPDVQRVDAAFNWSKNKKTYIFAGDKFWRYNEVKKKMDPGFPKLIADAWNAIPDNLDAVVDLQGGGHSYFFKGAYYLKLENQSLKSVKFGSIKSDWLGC
Source text: (§1) Matrix metalloproteinases (MMPs) are zinc-dependent endopeptidases capable of degrading and remodeling extracellular matrix components[46],[47]. They are attractive therapeutic targets as high expression levels were detected in various diseases, such as inflammatory diseases, and at different stages of cancers, including metastasis, invasion, and angiogenesis[47]–[53]. As shown in Supplementary Fig. 3c, we performed selections against the two gelatinases (human MMP-2 and human MMP-9) to identify binding fragments for later design and synthesis of small molecule inhibitors. After selection, the three sub-libraries were decoded, and the enrichment was calculated by dividing the post-selection fraction (count/total counts) by the pre-selection fraction (Fig. 4a and Supplementary Fig. 13).
(§2) 4 µg of MMP-2/MMP-9 was dissolved in 100 µl of selection buffer containing 25 mM Tris-base, 10 mM CaCl2, 150 mM NaCl, 0.05% Tween 20, pH 7.5. 10 µl of 4-Aminophenylmercuric acetate (APMA) (100 mM) solution was added to the protein solution and incubated at 37 °C for 1 h. After activation, the solution was added on top of 40 µl pre-washed Ni-NTA resin and incubated for 30 min on a rotary shaker. The supernatant was discarded, and the resin was washed three times with the selection buffer.
(§3) For each independent selection, three sub-libraries were mixed in the selection buffer with a final concentration of 40 nM of each sub-library in 100 µl. The mixture was heat denatured at 90 °C for 1 min and slowly cooled down to allow the formation of the trio-pharmacophore library. The dynamic dual-pharmacophore DEL was provided by DyNAbind GmbH (Merck, DYNA001).
(§4) The assembled library was incubated with the protein-bound solid support for 2 h at RT on a rotary shaker. In parallel, selection on bare solid support served as the negative control to exclude promiscuous binders on the resin. After panning, the supernatant was discarded, and the resin was washed three times with 1 ml selection buffer. Finally, 100 µl of 50 mM Tris buffer, pH 7.4 was added to resuspend the resin and the resin was incubated at 95 °C for 5 min to denature the protein, release, and collect the bound library members.
(§5) The eluted library members were subjected to sample preparation for NGS. NGS preparation was achieved by two-step PCR. First, the individual selection was indexed using primers containing unique sequences corresponding to each selection. The amplified product was purified from 2% agarose gel. Second, the purified DNA from all selections were pooled in equal amount and subjected to the 2nd PCR step to attach sequences compatible with the NGS flow cell and the sequencing primers. NGS was performed by Novogene UK with Novaseq 6000. Raw data files (fastq files) obtained were decoded using a custom python script and excel. The sequence reads corresponding to each sample was retrieved by searching for the correct index unique to each selection. Then, the code region was extracted from each sequence and assigned to the corresponding identity. The count of each code in each selection sample was obtained by looping through the total reads and counting the occurrence of each code. The enrichment fold of each compound was calculated by first, dividing the count by the total count to get the abundance, second, the abundance after the selection was divided by the abundance of pre-selection to reflect the distribution change of the compound. Next, the enrichment fold was plotted against the count for each member of the library to give the scatter plots as in Fig. 4.

MMP-9 [1] = biological target: T2, MMP-9 (Homo sapiens, UniProt P14780); assay: Dynamic dual-pharmacophore DEL selection against MMP-9, NGS decoding; settings: for MMP9 3L Enrichment Fold: 3L library (Supplementary fig 13); for MMP9 3L Count: 3L library; for MMP9 3L Count / MMP9 5L Count: sequence count (Supplementary fig 13); for MMP9 5L Enrichment Fold: 5L library (Supplementary fig 13); for MMP9 5L Count: 5L library
T2 construct: purchased Sino Biological 10327-HNAH
T2 sequence (P14780 107-707 limits assumed): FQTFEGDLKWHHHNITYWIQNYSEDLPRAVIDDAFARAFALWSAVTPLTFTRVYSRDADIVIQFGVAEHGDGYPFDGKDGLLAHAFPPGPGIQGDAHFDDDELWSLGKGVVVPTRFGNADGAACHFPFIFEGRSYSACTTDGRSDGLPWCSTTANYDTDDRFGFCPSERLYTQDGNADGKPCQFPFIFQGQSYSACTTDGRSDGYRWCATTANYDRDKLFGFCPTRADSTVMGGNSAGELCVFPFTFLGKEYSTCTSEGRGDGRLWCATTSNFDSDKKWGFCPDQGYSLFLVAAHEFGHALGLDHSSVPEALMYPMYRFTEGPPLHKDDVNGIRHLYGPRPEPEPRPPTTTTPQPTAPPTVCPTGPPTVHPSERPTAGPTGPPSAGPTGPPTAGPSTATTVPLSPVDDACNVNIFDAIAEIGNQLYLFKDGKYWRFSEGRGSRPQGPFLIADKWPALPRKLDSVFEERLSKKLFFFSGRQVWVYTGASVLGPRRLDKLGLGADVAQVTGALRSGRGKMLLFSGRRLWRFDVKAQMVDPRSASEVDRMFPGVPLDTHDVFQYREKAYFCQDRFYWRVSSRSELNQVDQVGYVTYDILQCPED
Source text: as §1, §2, §3, §4, §5

MMP-9 [2] = biological target: T2, MMP-9; assay: De novo T-DEL selection against MMP-9, NGS decoding; settings: for Enrichment Fold / Count: MMP9 selection; for Count: NGS sequence count per Compound ID (Figure 4a)
Source text: as §1, §2, §3, §4, §5

[3] = NGS sequence count of sub-library SL-A building block, de novo T-DEL selection against MMP-2
[4] = NGS sequence count of sub-library SL-C building block, de novo T-DEL selection against MMP-2
[5] = sub-library SL-A building block, de novo T-DEL selection against MMP-2
[6] = sub-library SL-C building block, de novo T-DEL selection against MMP-2
[7] = NGS sequence count of sub-library SL-A building block, de novo T-DEL selection against MMP-9
[8] = NGS sequence count of sub-library SL-C building block, de novo T-DEL selection against MMP-9
[9] = sub-library SL-A building block, de novo T-DEL selection against MMP-9
[10] = sub-library SL-C building block, de novo T-DEL selection against MMP-9
[11] = enrichment fold of sub-library SL-C member, MMP-2 selection, Figure 4a source data
[12] = sequence count of sub-library SL-C member, MMP-2 selection, Figure 4a source data
[13] = enrichment fold of sub-library SL-C member, MMP-9 selection, Figure 4a source data
[14] = sequence count of sub-library SL-C member, MMP-9 selection, Figure 4a source data

Compound	Enrichment Fold (MMP-9 [1]; MMP9 selection, 3L sub-library)	Enrichment Fold (MMP-9 [1]; MMP9 selection, 5L sub-library)	MMP2 SL-A Count (MMP-2; [3])	MMP2 SL-C Count (MMP-2; [4])	MMP2 SL-A Enrichment Fold (MMP-2; [5])	MMP2 SL-C Enrichment Fold (MMP-2; [6])	MMP9 3L Enrichment Fold (MMP-9 [1]; MMP9 selection)	MMP9 3L Count (MMP-9 [1]; MMP9 selection)	MMP9 5L Enrichment Fold (MMP-9 [1]; MMP9 selection)	MMP9 5L Count (MMP-9 [1]; MMP9 selection)	MMP9 SL-A Count (MMP-9 [2]; [7])	MMP9 SL-C Count (MMP-9 [2]; [8])	MMP9 SL-A Enrichment Fold (MMP-9 [2]; [9])	MMP9 SL-C Enrichment Fold (MMP-9 [2]; [10])	MMP2 SL-C Enrichment Fold (MMP-2; [11])	MMP2 SL-C Count (MMP-2; [12])	MMP9 SL-C Enrichment Fold (MMP-9 [2]; [13])	MMP9 SL-C Count (MMP-9 [2]; [14])	further results
O=C(O)CNC(=O)NC12CC3CC(CC(C3)C1)C2 [Compound 66]	0.3958	1.238																	Enrichment Fold (MMP-2; sub-library SL-A (Figure 4a)): 8.24; Count (MMP-2; sub-library SL-A): 13510; Enrichment Fold (MMP-2; sub-library SL-C (Figure 4a)): 0.3913; Count (MMP-2; sub-library SL-C): 81; Count (MMP-9 [1]; MMP9 selection, 3L sub-library, NGS sequence count): 87; Count (MMP-9 [1]; MMP9 selection, 5L sub-library, NGS sequence count): 2487; Enrichment Fold (MMP-9 [2]; sub-library SL-A (Figure 4a)): 2.103; Count (MMP-9 [2]; sub-library SL-A): 4968; Enrichment Fold (MMP-9 [2]; sub-library SL-C (Figure 4a)): 0.3958; Count (MMP-9 [2]; sub-library SL-C): 87
O=C(O)c1cncc(O)c1 [Compound 828]															4.434	13025	10.2969	32127	Enrichment Fold (MMP-9 [1]; MMP9 3L (3' sub-library members)): 10.2969; Count (MMP-9 [1]; MMP9 3L (3' sub-library members), NGS sequence count after selection): 32127

Continued, in another order:

Enrichment Fold (MMP-9 [1]; MMP9 selection, 3L sub-library)	Enrichment Fold (MMP-9 [1]; MMP9 selection, 5L sub-library)	MMP2 SL-A Count (MMP-2; [3])	MMP2 SL-C Count (MMP-2; [4])	MMP2 SL-A Enrichment Fold (MMP-2; [5])	MMP2 SL-C Enrichment Fold (MMP-2; [6])	MMP9 3L Enrichment Fold (MMP-9 [1]; MMP9 selection)	MMP9 3L Count (MMP-9 [1]; MMP9 selection)	MMP9 5L Enrichment Fold (MMP-9 [1]; MMP9 selection)	MMP9 5L Count (MMP-9 [1]; MMP9 selection)	MMP9 SL-A Count (MMP-9 [2]; [7])	MMP9 SL-C Count (MMP-9 [2]; [8])	MMP9 SL-A Enrichment Fold (MMP-9 [2]; [9])	MMP9 SL-C Enrichment Fold (MMP-9 [2]; [10])	Compound	MMP2 SL-C Enrichment Fold (MMP-2; [11])	MMP2 SL-C Count (MMP-2; [12])	MMP9 SL-C Enrichment Fold (MMP-9 [2]; [13])	MMP9 SL-C Count (MMP-9 [2]; [14])	further results
0.7692	1.565													O=C(O)Cn1cnc2c(oc3ccccc32)c1=O [Compound 182]					MMP2 SL-A Count (MMP-2; NGS sequence count per SL-A member, de novo T-DEL selection against MMP-2 (Figure 4a source data)): 3616; MMP2 SL-C Count (MMP-2; NGS sequence count per SL-C member, de novo T-DEL selection against MMP-2 (Figure 4a source data)): 971; MMP2 SL-A Enrichment Fold (MMP-2; enrichment fold per SL-A member, de novo T-DEL selection against MMP-2 (Figure 4a source data)): 1.934; MMP2 SL-C Enrichment Fold (MMP-2; enrichment fold per SL-C member, de novo T-DEL selection against MMP-2 (Figure 4a source data)): 0.9721; Count (MMP-9 [1]; MMP9 selection, 3L sub-library, sequence count per compound ID): 816; Count (MMP-9 [1]; MMP9 selection, 5L sub-library, sequence count per compound ID): 4821; MMP9 SL-A Count (MMP-9 [2]; NGS sequence count per SL-A member, de novo T-DEL selection against MMP-9 (Figure 4a source data)): 5190; MMP9 SL-C Count (MMP-9 [2]; NGS sequence count per SL-C member, de novo T-DEL selection against MMP-9 (Figure 4a source data)): 816; MMP9 SL-A Enrichment Fold (MMP-9 [2]; enrichment fold per SL-A member, de novo T-DEL selection against MMP-9 (Figure 4a source data)): 1.432; MMP9 SL-C Enrichment Fold (MMP-9 [2]; enrichment fold per SL-C member, de novo T-DEL selection against MMP-9 (Figure 4a source data)): 0.7692
		3710	1010	2.312	1.213	1.167	1032	4.572	8985	8460	1032	3.659	1.167	Cc1cc(=O)[nH]c(-n2nc(C)c(CCC(=O)O)c2C)n1 [Compound 693]					
		589	2395	0.846	2.519	3.649	3684	0.7364	628	949	3684	0.9459	3.649	NCc1c[nH]nn1 [Compound 787]					
		1212		1.562		4.359	10836	1.703	1619	1891		1.691		Cn1c(O)nc2cc(C(=O)O)cnc21 [Compound 826]	2.518	5893	4.359	10836	
